Results on 22 compounds are retold here after US10196364B2, “Pyrimidine carboxamides as sodium channel blockers” (Purdue Pharma L.P., priority 2013, dated 2019).

Some results are limits rather than exact numbers.

In this test the target is human Nav1.7 (Homo sapiens, UniProt Q15858). Briefly: FLIPR sodium dye assay (CoroNa Green AM Na+ dye, primary fluorescence assay) in recombinant Nav1.7/HEK293 cells. To be noted: Table 6; CoroNa Green AM Na+ dye primary fluorescence assay; read-out: Nav1.7 Activity (μM) FLIPR assay IC50. Format: cell-based.
Sequence of human Nav1.7 (Q15858 1-1977 isoform Q15858-3): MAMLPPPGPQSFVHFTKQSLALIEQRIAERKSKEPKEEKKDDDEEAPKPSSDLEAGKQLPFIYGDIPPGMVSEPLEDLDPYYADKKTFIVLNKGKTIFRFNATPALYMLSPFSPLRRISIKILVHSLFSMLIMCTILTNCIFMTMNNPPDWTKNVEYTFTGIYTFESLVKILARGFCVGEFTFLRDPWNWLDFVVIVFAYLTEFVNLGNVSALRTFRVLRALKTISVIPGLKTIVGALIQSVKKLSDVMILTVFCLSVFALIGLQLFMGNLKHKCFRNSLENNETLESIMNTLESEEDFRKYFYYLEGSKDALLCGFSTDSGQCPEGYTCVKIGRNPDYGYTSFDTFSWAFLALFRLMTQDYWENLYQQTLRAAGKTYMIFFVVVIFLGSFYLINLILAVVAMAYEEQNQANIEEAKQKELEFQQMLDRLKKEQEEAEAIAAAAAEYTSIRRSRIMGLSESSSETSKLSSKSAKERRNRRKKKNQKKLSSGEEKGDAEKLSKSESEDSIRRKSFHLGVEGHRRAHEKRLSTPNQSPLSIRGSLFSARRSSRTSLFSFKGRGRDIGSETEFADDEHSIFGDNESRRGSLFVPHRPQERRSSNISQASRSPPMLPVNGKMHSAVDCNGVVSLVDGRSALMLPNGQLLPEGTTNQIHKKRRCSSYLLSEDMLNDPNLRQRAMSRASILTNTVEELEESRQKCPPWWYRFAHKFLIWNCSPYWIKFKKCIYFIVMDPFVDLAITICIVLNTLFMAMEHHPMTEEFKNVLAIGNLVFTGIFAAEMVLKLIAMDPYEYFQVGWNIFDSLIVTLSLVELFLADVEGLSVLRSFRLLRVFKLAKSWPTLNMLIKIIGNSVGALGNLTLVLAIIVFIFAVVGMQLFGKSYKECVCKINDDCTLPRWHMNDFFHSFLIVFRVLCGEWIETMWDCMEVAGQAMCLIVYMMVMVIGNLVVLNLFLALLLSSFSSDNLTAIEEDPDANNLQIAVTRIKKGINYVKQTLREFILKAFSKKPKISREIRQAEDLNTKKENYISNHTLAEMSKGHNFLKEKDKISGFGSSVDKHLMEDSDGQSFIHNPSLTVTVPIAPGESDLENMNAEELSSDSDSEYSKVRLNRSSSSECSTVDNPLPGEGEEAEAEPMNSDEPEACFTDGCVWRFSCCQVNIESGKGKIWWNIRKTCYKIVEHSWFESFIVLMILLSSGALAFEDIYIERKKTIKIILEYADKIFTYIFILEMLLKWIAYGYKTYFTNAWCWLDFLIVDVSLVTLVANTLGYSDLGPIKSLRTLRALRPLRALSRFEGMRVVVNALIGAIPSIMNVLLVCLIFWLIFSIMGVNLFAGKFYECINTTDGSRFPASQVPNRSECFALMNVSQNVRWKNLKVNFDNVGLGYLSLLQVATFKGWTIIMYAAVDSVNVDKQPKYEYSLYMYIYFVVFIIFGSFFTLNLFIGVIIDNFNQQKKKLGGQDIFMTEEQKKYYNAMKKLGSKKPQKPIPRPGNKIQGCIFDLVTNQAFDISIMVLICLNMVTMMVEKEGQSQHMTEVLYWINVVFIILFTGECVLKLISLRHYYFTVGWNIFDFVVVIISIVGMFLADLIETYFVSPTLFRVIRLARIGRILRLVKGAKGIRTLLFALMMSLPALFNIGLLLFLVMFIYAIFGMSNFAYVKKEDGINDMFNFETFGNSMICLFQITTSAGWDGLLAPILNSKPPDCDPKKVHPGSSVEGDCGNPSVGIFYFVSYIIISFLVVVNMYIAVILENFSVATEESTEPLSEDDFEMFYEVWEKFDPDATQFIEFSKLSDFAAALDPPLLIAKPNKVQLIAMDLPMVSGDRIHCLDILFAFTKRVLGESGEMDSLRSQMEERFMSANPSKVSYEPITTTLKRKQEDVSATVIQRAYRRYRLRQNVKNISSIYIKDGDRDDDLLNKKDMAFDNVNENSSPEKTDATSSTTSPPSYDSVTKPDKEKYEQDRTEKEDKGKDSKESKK
Take `NC(=O)c1cc(N[C@H]2CCNC2=O)nc(-c2ccc(Oc3ccc(F)cc3)cc2CNC2CC2)n1` [compound 163, (S)-2-(2-((cyclopropylamino)methyl)-4-(4-fluorophenoxy)phenyl)-6-((2-oxopyrrolidin-3-yl)amino)pyrimidine-4-carboxamide]: the concentration for half-maximal inhibition (IC50) was 1.43 µM.

For `NC(=O)c1cc(N[C@H]2CCNC2=O)nc(-c2ccc(Oc3ccc(OC(F)(F)F)cc3)cc2)n1` [compound 116, (S)-6-((2-oxopyrrolidin-3-yl)amino)-2-(4-(4-(trifluoromethoxy)phenoxy)phenyl)pyrimidine-4-carboxamide], the IC50 is 0.18 µM.

For the compound `NC(=O)c1cc(N[C@H]2CCNC2=O)nc(N2C3CCC2CC(Oc2ccc(C(F)(F)F)cc2)C3)n1` (stereo partly drawn) [compound 135, 6-(((S)-2-oxopyrrolidin-3-yl)amino)-2-(3-(4-(trifluoromethyl)phenoxy)-8-azabicyclo[3.2.1]octan-8-yl)pyrimidine-4-carboxamide], the 50% inhibitory concentration (IC50) was determined as 1.62 µM.

Regarding `NC(=O)c1cc(N[C@H]2CCNC2=O)nc(-c2ccc(Oc3ccc(F)cc3)cc2CN2CCCC2)n1` [compound 160, (S)-2-(4-(4-fluorophenoxy)-2-(pyrrolidin-1-ylmethyl)phenyl)-6-((2-oxopyrrolidin-3-yl)amino)pyrimidine-4-carboxamide], the IC50 came to 6.67 µM.

For the compound `CN1CC=C(c2cc(C(F)(F)F)ccc2Oc2ccc(-c3nc(N[C@H]4CCNC4=O)cc(C(N)=O)n3)cc2)CC1` [Cpd No. 207, (S)-2-(4-(2-(1-methyl-1,2,3,6-tetrahydropyridin-4-yl)-4-(trifluoromethyl)phenoxy)phenyl)-6-((2-oxopyrrolidin-3-yl)amino)pyrimidine-4-carboxamide], the IC50 worked out at 4.7 µM.

As for `NC(=O)c1cc(O[C@@H](CO)C(N)=O)nc(-c2ccc(Oc3ccc(C(F)(F)F)cc3)cc2)n1` [compound 121, (S)-6-((1-amino-3-hydroxy-1-oxopropan-2-yl)oxy)-2-(4-(4-(trifluoromethyl)phenoxy)phenyl)pyrimidine-4-carboxamide], the IC50 was 1.01 µM.

In the case of `Cc1cnc(Oc2ccc(-c3nc(N[C@H]4CCNC4=O)cc(C(N)=O)n3)cc2)cn1` [Cpd No. 199, (S)-2-(4-((5-methylpyrazin-2-yl)oxy)phenyl)-6-((2-oxopyrrolidin-3-yl)amino)pyrimidine-4-carboxamide], the IC50 worked out at 4.67 µM.

Consider `NC(=O)c1cc(N[C@H]2CCNC2=O)nc(-c2ccc(Oc3ccc(C(F)(F)F)cc3)cc2CN2CCOCC2)n1` [Cpd No. 200, (S)-2-(2-(morpholinomethyl)-4-(4-(trifluoromethyl)phenoxy)-phenyl)-6-((2-oxopyrrolidin-3-yl)amino)pyrimidine-4-carboxamide], for which the IC50 stood at 0.28 µM.

Turning to `NC(=O)c1cc(N[C@H]2CCNC2=O)nc(-c2ccc(Oc3cnc(C(F)(F)F)cn3)cc2)n1` [compound 141, (S)-6-((2-oxopyrrolidin-3-yl)amino)-2-(4-((5-(trifluoromethyl)pyrazin-2-yl)oxy)phenyl)pyrimidine-4-carboxamide], the IC50 was 0.74 µM.

In the case of `C[C@H](Nc1cc(C(N)=O)nc(-c2ccc(Oc3ccc(C#N)cc3)cc2C(F)(F)F)n1)C(N)=O` [compound 128, (S)-6-((1-amino-1-oxopropan-2-yl)amino)-2-(4-(4-cyanophenoxy)-2-(trifluoromethyl)phenyl)pyrimidine-4-carboxamide], the IC50 was above 20 µM.

As for `O=C(O)c1cc(N[C@H]2CCNC2=O)nc(-c2ccc(Oc3ccc(C(F)(F)F)cn3)cc2)n1` [compound 157, (S)-6-((2-oxopyrrolidin-3-yl)amino)-2-(4-((5-(trifluoromethyl)pyridin-2-yl)oxy)phenyl)pyrimidine-4-carboxylic acid], the IC50 was above 20 µM.

On to `COc1cnc(Oc2ccc(-c3nc(N[C@@H](C)C(N)=O)cc(C(N)=O)n3)cc2)cn1` [Cpd No. 198, (S)-6-((1-amino-1-oxopropan-2-yl)amino)-2-(4-((5-methoxy-pyrazin-2-yl)oxy)phenyl)-pyrimidine-4-carboxamide], for which the concentration for half-maximal inhibition (IC50) was above 20 µM.

In the case of `CC1CN1Cc1cc(Oc2ccc(F)cc2)ccc1-c1nc(N[C@H]2CCNC2=O)cc(C(N)=O)n1` (stereo partly drawn) [Cpd No. 188, 2-(4-(4-fluorophenoxy)-2-((2-methylaziridin-1-yl)methyl)-phenyl)-6-(((S)-2-oxopyrrolidin-3-yl)amino)pyrimidine-4-carboxamide], the IC50 is 4.64 µM.

Take `NC(=O)c1cc(N2CCNCC2C(N)=O)nc(-c2ccc(Oc3ccc(Cl)cc3F)cc2)n1` (stereo not shown) [compound 108, 6-(2-carbamoylpiperazin-1-yl)-2-(4-(4-chloro-2-fluorophenoxy)phenyl)pyrimnidine-4-carboxamide]: the IC50 worked out at 0.29 µM.

With `NC(=O)c1cc(N2CC[C@H]2C(N)=O)nc(-c2ccc(Oc3ccc(F)cc3)cc2)n1` [compound 132, (S)-6-(2-carbamoylazetidin-1-yl)-2-(4-(4-fluorophenoxy)phenyl)pyrimidine-4-carboxamide], the IC50 came out at 0.28 µM.

For `NC(=O)c1cc(N[C@H]2CCNC2=O)nc(Oc2ccc(Oc3ccc(C(F)(F)F)cn3)cc2)n1` [compound 166, (S)-6-((2-oxopyrrolidin-3-yl)amino)-2-(4-((5-(trifluoromethyl)pyridin-2-yl)oxy)phenoxy)pyrimidine-4-carboxamide], the IC50 amounted to 3.9 µM.

`NC(=O)c1cc(N[C@H]2CCNC2=O)nc(C2CCC(Oc3ccc(C(F)(F)F)cn3)CC2)n1` (stereo partly drawn) [Cpd No. 214, (S)-6-((2-oxopyrrolidin-3-yl)amino)-2-(4-((5-(trifluoromethyl)pyridin-2-yl)oxy)cyclohexyl)pyrimnidine-4-carboxamide]: the IC50 is 0.93 µM.

On to `NC(=O)c1cc(N[C@H]2CCNC2=O)nc(N2[C@@H]3CC[C@H]2C[C@@H](Oc2ccc(C(F)(F)F)cc2CN2CCCC2)C3)n1` [Cpd No. 191, 6-(((S)-2-oxopyrrolidin-3-yl)amino)-2-((1R,3S,5S)-3-(2-(pyrrolidin-1-ylmethyl)-4-(trifluoromethyl)phenoxy)-8-azabicyclo[3.2.1]octan-8-yl)pyrimidine-4-carboxamide], for which the IC50 turned out to be 1.97 µM.

`NC(=O)c1cc(N2CCC[C@H]2C(N)=O)nc(-c2ccc(Oc3ccc(OC(F)(F)F)cc3)cc2)n1` [compound 125, (S)-6-(2-carbamoylpyrrolidin-1-yl)-2-(4-(4-(trifluoromethoxy)phenoxy)phenyl)pyrimnidine-4-carboxamide]: the IC50 came out at 0.28 µM.

With `NC(=O)c1cc(N[C@H]2CCNC2=O)nc(N2CC(Oc3ccc(C(F)(F)F)cn3)C2)n1` [compound 150, (S)-6-((2-oxopyrrolidin-3-yl)amino)-2-(3-((5-(trifluoromethyl)pyridin-2-yl)oxy)azetidin-1-yl)pyrimidine-4-carboxamide], the half-inhibitory concentration (IC50) came out at 0.95 µM.

On to `C[C@H](Nc1cc(C(N)=O)nc(-c2ccc(Oc3ccc(F)cc3)c(C(N)=O)c2)n1)C(N)=O` [compound 111, (S)-6-((1-amino-1-oxopropan-2-yl)amino)-2-(3-carbamoyl-4-(4-fluorophenoxy)phenyl)pyrimidine-4-carboxamide], for which the IC50 stood at 7.88 µM.

Regarding `Cn1ccnc1CNc1cc(C(N)=O)nc(-c2ccc(Oc3ccc(F)cc3)cc2)n1` [Cpd No. 180, 2-(4-(4-fluorophenoxy)phenyl)-6-(((1-methyl-1H-imidazol-2-yl)methyl)-amino)pyrimidine-4-carboxamide], the IC50 is 0.14 µM.

One may read the IC50 as the concentration at which inhibition is half-maximal.
